From US9492471B2, “Methods of treating a disease or disorder associated with Bruton'S Tyrosine Kinase” (Celgene Avilomics Research, Inc., priority 2013, dated 2016)

Columns and labels:
patients with CLL = experiment: Compound 1 besylate monotherapy in CLL patients; assay type: in vivo, human
Environmental stability = assay type: physicochemical
[1] = monotherapy, as of Sep. 11, 2012

C=CC(=O)Nc1cccc(Nc2nc(Nc3ccc(OCCOC)cc3)ncc2F)c1 [Compound 1, N-(3-(5-fluoro-2-(4-(2-methoxyethoxy)phenylamino)pyrimidin-4-ylamino)phenyl)acrylamide]
maximum tolerated dose (MTD) (patients with CLL; single agent, up to 750 mg PO QD): has not yet been reached

C=CC(=O)Nc1cccc(Nc2nc(Nc3ccc(OCCOC)cc3)ncc2F)c1.O=S(=O)(O)c1ccccc1 [N-(3-(5-fluoro-2-(4-(2-methoxyethoxy)phenylamino)pyrimidin-4-ylamino)phenyl)acrylamide benzenesulfonic acid salt]
patients with CLL with stable disease continuing on treatment (patients with CLL; [1]): 35 out of 43 | patients with early increases in absolute lymphocyte counts (ALC) (patients with CLL; [1]): 28 of 33 | patients with reductions in lymph node size (patients with CLL; [1]): 15 of 23 | environmental instabilities (heat, acid, base) (Environmental stability): no environmental instabilities
